{"source": "patent US8557298B2", "about": "“Medicaments for chemotherapeutic treatment of disease” (Provectus Pharmatech, Inc., priority 1998, dated 2013)", "key": {"[1]": {"test": "Toxicology data (LD50), murine administration", "format": "in vivo", "conditions": "for LD50 p.o.: murine oral (p.o.) administration"}, "various murine tumors": {"tested_on": "various murine tumors", "conditions": "within 24 hours"}, "[2]": {"test": "Partition coefficient Kp (n-octanol / phosphate buffered saline)", "format": "physicochemical", "conditions": "n-octanol vs phosphate buffered saline, PBS, pH = 7.4", "protocol": "For example, to a first approximation, an agent's potential for tissue accumulation can be estimated based on the partition coefficient, Kp. This in vitro parameter is purported to have predictive value relating to in vivo agent delivery at the cellular level. […] Kp is determined by measuring the ratio of equilibrium concentrations of an agent in a lipophilic phase (n-octanol) contacted with an aqueous phase (phosphate buffered saline, PBS, pH=7.4)."}, "[3]": {"tested_on": "recurrent aggressive sarcoma tumor", "test": "Intratumoral injection of 10% Rose Bengal into naturally-occurring sarcoma in a dog", "format": "in vivo"}, "[4]": {"test": "Tissue pharmacokinetics of Rose Bengal after intraperitoneal injection into tumor-bearing nude mice", "format": "in vivo", "protocol": "Tissue samples (liver, abdominal wall, and tumor) were immediately obtained from the sacrificed mice, homogenized, centrifuged for 10 minutes at 1520×g, and the resulting supernatant collected and analyzed fluorimetrically. […] At the same time, persistent accumulation occurs in tumor tissue, with greater than 50% of maximum measured agent concentration maintained in such tissues for periods in excess of 24 hours."}, "[5]": {"tested_on": "BNL/SV40 liver cell tumor", "test": "Intratumoral/peritumoral injection of 10% Rose Bengal into BNL/SV40 liver cell tumors in nude mice", "format": "in vivo, nude mice"}, "[6]": {"test": "Systemic administration of Rose Bengal to obese laboratory mice, tissue accumulation", "format": "in vivo", "conditions": "aqueous solution, i.p. or p.o.", "description": "For example, Rose Bengal's relatively large partition coefficient is indicative of a preference for accumulation in lipophilic tissue, such as cutaneous lipocytes."}, "Staphylococcus aureus": {"tested_on": "Staphylococcus aureus", "format": "cell-based", "protocol": "The inventors tested this hypothesis by evaluating the chemotherapeutic properties of Rose Bengal and Erythrosin B on cultures of the bacterium Staphylococcus aureus. […] In both illustrations, test cultures were exposed to the indicated agents at the indicated concentrations for the indicated times; cytotoxicity was subsequently estimated by serial dilution (10×dilution per step) of the treated cell cultures into 96-well plates containing fresh culture media; these samples were then incubated under standard conditions. Viability (e.g., Logs of Growth) for each test culture was then estimated by counting the number of dilution steps resulting in positive cell growth. Cytotoxicity upon exposure to a particular agent is thereby estimated by the reduction in viability relative to unexposed (e.g., control) cultures."}, "[7]": {"conditions": "murine intravenous (i.v.) administration"}}}
{"smiles": "CC1(C)C(/C=C/C=C/C=C/C=C2\\N(CCCCS(=O)(=O)O)c3ccc4ccccc4c3C2(C)C)=[N+](CCCCS(=O)(=O)[O-])c2ccc3ccccc3c21", "note": "[Indocyanine Green, reference compound]", "values": [{"measurement": "LD50", "setting": "[1]; mouse, in vivo, murine intravenous (i.v.) administration", "result": 60, "unit": "mg/kg"}, {"measurement": "Tumor retention after i.t. administration", "setting": "various murine tumors", "result": "substantively migrates out of tumors"}]}
{"smiles": "CC1=C(CCC(=O)O)c2cc3[nH]c(cc4nc(cc5[nH]c(cc1n2)c(C)c5C(C)O)C(C)=C4C(C)O)c(C)c3CCC(=O)O", "note": "(stereo not drawn) [Porphyrin HpIX, reference compound]", "values": [{"measurement": "LD50 p.o.", "setting": "[1]", "result": ">1,000 mg/kg"}, {"measurement": "Partition coefficient, Kp", "setting": "[2]", "result": 1.5}]}
{"smiles": "O=C1OC2(c3cc(I)c(O)c(I)c3Oc3c2cc(I)c(O)c3I)c2c(Cl)c(Cl)c(Cl)c(Cl)c21", "note": "[Rose Bengal, 4,5,6,7-Tetrachloro-2′,4′,5′,7′-tetraiodofluorescein]", "values": [{"measurement": "Tumor response at follow-up examination", "setting": "[3]; after 19 days", "result": "further measurable decrease in tumor size"}, {"measurement": "Tumor response at follow-up examination", "setting": "[3]; approximately 5 cc of 10% solution into approximately 20 cc tumor, after five days", "result": "measurable decrease in tumor density along with significant edema and apparent necrosis of large sections of the tumor"}, {"measurement": "Side-effects in healthy tissue surrounding the tumor", "setting": "[3]; intratumoral injection, dog", "result": "no significant side-effects"}, {"measurement": "Time for concentrations in normal tissue (abdominal wall) and liver to diminish to unmeasurable levels", "setting": "[4]; i.p., 50-100 μL of 0.5% Rose Bengal in saline, tumor-bearing nude mice", "result": "≤ 24", "unit": "h"}, {"measurement": "Share of maximum measured agent concentration maintained in tumor tissue", "setting": "[4]; tumor tissue, periods in excess of 24 hours after i.p. injection", "result": "greater than 50%"}, {"measurement": "LD50 p.o.", "setting": "[1]", "result": ">1,000 mg/kg"}, {"measurement": "Effect on tumor growth", "setting": "[5]; i.t. and p.t. injection of 10% Rose Bengal, over a period of several weeks", "result": "stasis, with no significant change in tumor volume"}, {"measurement": "Time to clearance from normal tissue (tumor tissue remained stained)", "setting": "[5]; mouse, in vivo", "result": "≤ 7", "unit": "days"}, {"measurement": "Effect on normal tissue and adjacent tumor tissue", "setting": "[5]; peritumoral injection alone", "result": "no significant effect on normal tissue, nor on the adjacent tumor tissue"}, {"measurement": "Retention in normal tissue", "setting": "[5]; peritumoral injection alone, after 24 hours", "result": "no detectable retention in normal tissue"}, {"measurement": "Partition coefficient, Kp", "setting": "[2]", "result": 11.5}, {"measurement": "Tissue accumulation after systemic administration", "setting": "[6]", "result": "highly selective accumulation of said agent in certain tissues"}, {"measurement": "Cytotoxic effect (reduction in viability, Logs of Growth)", "setting": "Staphylococcus aureus", "result": "marked chemotherapeutic response that is concentration dependent"}]}
{"smiles": "O=C([O-])c1c(Cl)c(Cl)c(Cl)c(Cl)c1-c1c2cc(Br)c(=O)c(Br)c-2oc2c(Br)c([O-])c(Br)cc12.[Na+].[Na+]", "note": "[Phloxine B]", "values": [{"measurement": "LD50 i.v.", "setting": "[1]; [7]", "result": 310, "unit": "mg/kg"}, {"measurement": "LD50 p.o.", "setting": "[1]", "result": 310, "unit": "mg/kg"}, {"measurement": "Partition coefficient, Kp", "setting": "[2]", "result": 1.1}]}
{"smiles": "O.O=C([O-])c1ccccc1-c1c2cc(I)c(=O)c(I)c-2oc2c(I)c([O-])c(I)cc12.[Na+].[Na+]", "note": "[Erythrosin B]", "values": [{"measurement": "LD50 i.v.", "setting": "[1]; [7]", "result": 370, "unit": "mg/kg"}, {"measurement": "LD50 p.o.", "setting": "[1]", "result": ">1,000 mg/kg"}, {"measurement": "Partition coefficient, Kp", "setting": "[2]", "result": 1.9}, {"measurement": "Cytotoxic effect (reduction in viability, Logs of Growth)", "setting": "Staphylococcus aureus", "result": "no significant chemotherapeutic response"}]}
